Data: US20150087722A1, “TREATMENT FOR BREAST TUMOR CELL METASTASIS” (China Medical University, priority 2012, published 2015)

Experiments:
[1] = system: breast tumor cells MDA-MB-231; assay: colony formation assay; assay type: cell-based, human; conditions: MDA-MB-231, 24 h treatment, FIG. 1B
Excerpt: In order to know the effect of the compound II on the colony formation of the breast tumor cells MDA-MB-231, the cells were observed through a colony formation assay.

[2] = system: ERK1/2, p38 and JNK1/2 in breast tumor cells; assay: western blotting of MAPK proteins and phosphorylation; assay type: cell-based, human; conditions: 2 μM, 0-120 min
Description: The steps of western blotting include: washing cells with PBS twice at 4° C.; adding a lysis buffer and rubbing the cells by a rubbr policeman so as to lyse cells; putting the lysed cell solution into a 1.5 ml microcentrifuge tube and shaking for 1 min; centrifuging at 12000 rpm for 10 min and taking the supernatant; measuring concentration of the protein through a Bio-Rad protein assay kit; and storing the remained extracted protein solution at −70° C.; taking 100 μg protein solution and adding a SDS/protein loading buffer having the same volume, where the SDS/protein loading buffer has a concentration two times larger than the protein solution; boiling the mixture of the protein solution and the SDS/protein loading buffer at 100° C. for 10 min; cooling and loading the protein samples in each hole of gel; adjusting the voltage to 100 V and running the protein samples on the gel until the tracking dye in the sample buffer reaches the bottom of the gel; and subsequently transferring the protein from the gel using electrophoresis. […] Then luminescence image equipment was used, where the PVDF was placed onto a black metal plate by a plastic pincer and the face including protein was upwards, a 1:1 mixed Chemiluminesent Substrate was added into the membrane and the exposure time depends on the fluorescence intensity of antibodies. […]

[3] = system: EMT-related proteins in human normal breast cells MCF-10A stimulated by TNF-α/TGF-β; assay: western blotting of EMT-related proteins; assay type: cell-based
Description: FIG. 2A illustrates the expression results of EMT-related proteins in breast tumor cells MDA-MB-231 after the breast tumor cells MDA-MB-231 have been respectively cultured under compound II having concentrations of 0, 0.5, 1 and 2 μM for 24 h; and FIG. 2B illustrates the expression results of EMT-related proteins in breast tumor cells MCF-7 after the breast tumor cells MCF-7 have been respectively cultured under the compound II having concentrations of 0, 10, 15 and 20 μM for 24 h. FIG. 3A illustrates the western blotting results of EMT-related proteins in the breast tumor cells MDA-MB-468, where the breast tumor cells MDA-MB-468 are treated with the compound I having concentrations of 0, 0.5, 1 and 2 μM for 24 h, and FIG. 3B illustrates the western blotting results of EMT-related proteins in the breast tumor cells MDA-MB-435, where the breast tumor cells MDA-MB-435 are treated with the compound I having concentrations of 0, 2.5, 5 and 7.5 μM for 24 h. FIG. 4 illustrates the western blotting results of EMT-related proteins in the human normal breast cells MCF-10A stimulated by TNF-α/TGF-β, where the human normal breast cells MCF-10A are treated with the compound I having concentrations of 2 μM for 24 h. The human normal breast cells stimulated by TNF-α/TGF-β can cause TNF-α/TGF-β-induced EMT in the human normal breast cells MCF-10A. The steps of western blotting include: washing cells with PBS twice at 4° C.; adding a lysis buffer and rubbing the cells by a rubbr policeman so as to lyse cells; putting the lysed cell solution into a 1.5 ml microcentrifuge tube and shaking for 1 min; centrifuging at 12000 rpm for 10 min and taking the supernatant; measuring concentration of the protein through a Bio-Rad protein assay kit; and storing the remained extracted protein solution at −70° C.; taking 100 μg protein solution and adding a SDS/protein loading buffer having the same volume, where the SDS/protein loading buffer has a concentration two times larger than the protein solution; boiling the mixture of the protein solution and the SDS/protein loading buffer at 100° C. for 10 min; cooling and loading the protein samples in each hole of gel; adjusting the voltage to 100 V and running the protein samples on the gel until the tracking dye in the sample buffer reaches the bottom of the gel; and subsequently transferring the protein from the gel using electrophoresis. A PVDF membrane was soaked in methanol until the paper was totally wet. […] Then luminescence image equipment was used, where the PVDF was placed onto a black metal plate by a plastic pincer and the face including protein was upwards, a 1:1 mixed Chemiluminesent Substrate was added into the membrane and the exposure time depends on the fluorescence intensity of antibodies. […]

[4] = system: human normal breast cells MCF-10A stimulated by TNF-α/TGF-β; assay: transwell invasion assay; assay type: cell-based; conditions: 2 μM with TNF-α/TGF-β 10 ng/ml simultaneously
[5] = 2 μM with TNF-α/TGF-β 10 ng/ml, 24 h

Compound | colony formation of breast tumor cells [1] | phosphorylation of ERK1/2, p38 and JNK1/2 [2] | protein expression of ERK1/2, p38 and JNK1/2 [2] | protein expression amount of E-cadherin and occludin [3, 5] | protein expression amount of vimentin and β-catenin [3, 5] | protein expression amount of E-cadherin and occludin ([3]; compound alone 2 μM) | protein expression amount of vimentin and β-catenin ([3]; compound alone 2 μM) | invasion of MCF-10A [4]
COC1=C(OC)C(=O)C(C)=C(C)C1=O [compound II] | significantly inhibit colony formation | probably inhibited | not affected |  |  |  |  | 
COC1=C(OC)C(=O)C(C)=CC1=O [compound I] |  |  |  | also increased | recovered the increase caused by TNF-α/TGF-β stimulating | increased | decreased | significantly decreased
